Experimental data reported in PMC5228037, “Discovery and Mechanistic Characterization of Selective Inhibitors of H2S-producing Enzyme: 3-Mercaptopyruvate Sulfurtransferase (3MST) Targeting Active-site Cysteine Persulfide” (Scientific Reports, 2017).

Target: T1, rhodanese (thiosulfate sulfurtransferase, Type II) (Bos taurus, UniProt P00586)
T1 construct: Bovine liver rhodanese; purchased Sigma-Aldrich; host or cells: bovine liver
T1 sequence (P00586 1-297): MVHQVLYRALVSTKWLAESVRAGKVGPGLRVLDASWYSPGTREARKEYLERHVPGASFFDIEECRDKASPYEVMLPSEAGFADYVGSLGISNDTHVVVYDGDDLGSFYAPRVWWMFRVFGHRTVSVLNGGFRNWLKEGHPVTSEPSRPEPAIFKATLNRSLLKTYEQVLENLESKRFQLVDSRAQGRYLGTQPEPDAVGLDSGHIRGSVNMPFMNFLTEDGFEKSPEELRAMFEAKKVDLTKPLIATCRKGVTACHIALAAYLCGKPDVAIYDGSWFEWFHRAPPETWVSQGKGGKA
Assay: Rhodanese activity, conversion of cyanide to thiocyanide (Sörbo method)
Type: biochemical, bovine
Details: 100 μM compound; room temperature 5 min; mean ± S.D.
Procedure: Figure 2 Selectivity assessment of hit compounds for 3MST over other H2S/polysulfides-producing enzymes and rhodanese. (a) 3MST-Inhibitory activity of hit compounds at 10 and 100 μM in cell lysate of 3MST-expressing HEK293 cells. 100 μM 3MP and 100 μM DTT were added to the solution containing 0.1% DMSO as a cosolvent, and the mixture was incubated at 37 °C for 15 min. H2S production was measured by gas chromatography. All data are presented as the mean ± S.D. (100 μM: n = 3 or 4; 10 μM: n = 3). (b) Selectivity assessment of hit compounds at 100 μM towards CBS and CSE. Only DMSO was added to the control sample instead of DMSO solution containing hit compounds. H2S production was monitored by gas chromatography. All data are presented as the mean (n = 3). (c) Detection method for rhodanese activity (Sörbo method). (d) Selectivity assessment of hit compounds towards rhodanese. The results are mean ± S.D. (n = 4, three times). These values were determined based upon the absorbance of [Fe(SCN)3] at 460 nm (Sӧrbo method). Bovine rhodanese 1.3–1.7 units/mL, substrate: 52 mM Na2S2O3, 50 mM KCN, 0.004% (w/v) BSA, 100 μM compound and DMSO 1% (v/v) in 88 mM potassium phosphate buffer (pH 8.6) at room temperature for 5 min incubation. (e) Fluorescence confocal microscopic images of live COS7 cells transfected with 3MST or an empty vector[9] as a control. Cells were incubated with 50 μM SSP4, a fluorescent probe for sulfane sulfur, and 10 μM, 1 μM, 0.5 μM, 0.1 or 0 μM compound 3 in DMEM containing 0.6% DMSO for 30 min, then washed with HBSS and placed in fresh DMEM with 0‒10 μM compound 3 (Pre). 500 μM 3MP was added to the cells and the cells were incubated for 10 min (10 min). (f) Graphic representation of (e). F/F0 was calculated by dividing the fluorescence intensity of cells after addition of 500 μM 3MP (10 min) by that of cells before addition of 500 μM 3MP (Pre), then the mean F/F0 was determined from 5 cells. All data represent the mean ± standard error of the mean (SEM) of three experiments.
Following reagents were prepared.
B. 125 mM sodium thiosulfate (Na2S2O3) solution
C. 250 mM potassium cyanide (KCN) solution in reagent A
D. 14% (w/v) nitric acid (HNO3) solution
E. 410 mM ferric nitrate (Fe(NO3)3) in reagent D
F. 37% formaldehyde solution
G. 12.5 mM sodium thiosulfate (Na2S2O3) solution with 0.025% bovine serum albumin H. rhodanese solution in reagent G […]
Mixed by pipetting and equilibrate d to room
Reagent H (Enzyme Solution) 16 µL 16 µL - Mixed by pipetting and incubate d at 25℃ for exactly 5 minutes , and then added […]
Mixed by pipetting and then added […]
Mixed by pipetting , transferred the solution 44 µL 44 µL 44 µL […]
Mixed by pipetting and recorded the A460 nm for the Test, Control and Blank using a microplate […]
Supplementary Figure S10. […]

| Inhibition of rhodanese conversion of cyanide ions to thiocyanide ions | SMILES |
| --- | --- |
| 18.2 ± 3.6% | NC(=O)c1ccsc1NC(=O)CSc1nc2ccccc2c(=O)[nH]1 [compound 1] |
| 1.7 ± 6.7% | Cc1cc(=O)[nH]c(SCC(=O)c2cccc3ccccc23)n1 [compound 3] |
| 9.7 ± 4.5% | O=C(O)c1cccc(NS(=O)(=O)c2ccccc2)c1 [compound 5] |
| 10.9 ± 5.5% | Cc1sc2nc(SCC(=O)c3ccc(O)cc3O)[nH]c(=O)c2c1C [compound 2] |
